The values below come from patent US10849994B2, “Pharmaceutical composition comprising fluorine-18 labelled gases” (ASOCIACIÓN CENTRO DE INVESTIGACIÓN COOPERATIVA EN …, priority 2016, dated 2020).

The data set is described as follows: PET-CT ventilation imaging after inhalation of the radioactive gas. Type of data set: in vivo, rat (Sprague-Dawley). The conditions noted are these: male rats. The protocol: Imaging studies were conducted with [^18F]CF4.
Male rats (n=2) weighing 350±14 g (Sprague-Dawley, Harlan, Udine, Italy) were used to perform PET studies. The animals were cared for and handled in accordance with the Guidelines for Accommodation and Care of Animals (European Convention for the Protection of Vertebrate Animals Used for Experimental and Other Scientific Purposes) and internal guidelines, and experimental procedures were approved by the Ethical Committee and local authorities.
The radioactive gas was administered by inhalation, by mixing the mixture [^18F]CF4/CF4/Ne obtained at the end of the production process (process A) with the oxygen carrier gas. With that aim, the system depicted in FIG. 3 was implemented.
PET studies were performed using an eXploreVista-CT small animal PET-CT system (GE Healthcare).
Step 1: Rats were anesthetized in an induction chamber using a mixture of 3-4% isoflurane in O2.
Step 2: Animals were rapidly moved into the PET-CT camera, were anaesthesia was maintained with a mixture of 1.5-2.0% isofluorane in O2. During the stay into the PET-CT camera, animals were kept normothermic using a heating blanket (Homeothermic Blanket Control Unit; Bruker). Regular breathing (frequency of 50±10 breaths/minute) was maintained by adjustment of anaesthetic conditions. Respiration and body temperature of the animals were monitored throughout the scan.
Step 3: At t=0 min, with the animal under anaesthesia, acquisition of PET images was started in list mode.
Step 4: At t=1 minute, the syringe pump was started and the radioactive gas ([^18F]CF4, diluted with Neon and non-radioactive CF4, 74 MBq, 2 mCi) was introduced in the main stream of oxygen and consequently administered to the animal.
Step 5: At t=2 minutes, the syringe pump was stopped, and image acquisition was continued until t=10 minutes.
Step 6: After finalising the PET image acquisition, a whole body CT scan was performed, providing anatomical information as well as the attenuation map, for the later image reconstruction.
Images were reconstructed (decay and CT-based attenuation corrected) with OSEM-2D. Twenty nine frames (3×20s, 10×10s, 4×20s and 12×30s) were defined to gain information about the spatiotemporal distribution of the radioactivity. PET images were analysed using PMOD image analysis software (PMOD Technologies Ltd, Zurich, Switzerland). Volumes of interest (VOIs) were manually drawn in the lungs on the CT images. VOIs were then transferred to the PET images and the concentration of radioactivity was obtained for each organ and time frame as cps/cm^3. All frames were finally summed and re-processed to get more accurate images of the distribution of radioactivity within the lungs.

In the case of `FC(F)(F)[18F]` [[^18F]CF4, ^18F-labelled carbon tetrafluoride], the “distribution of the radioactive gas in the lungs (summed PET-CT images, FIG. 8)” value (n=2, 74 MBq in O2/isoflurane, delivered t=1-2 min, all frames summed) was “uniform distribution of the radioactive gas in the lungs”. The “elimination of the radioactivity from the lungs after delivery of the radioactive gas is discontinued” value (n=2, after the syringe pump was stopped at t=2 min) is “almost complete elimination of the radioactivity is achieved in a few seconds”. For the same compound, the “time-activity curve of a VOI drawn in the whole lungs: plateau (FIG. 9)” value (n=2, during gas delivery) is recorded as “reached immediately after the onset of contrast agent administration”. For the same compound, the “distribution of the radioactive gas in the lungs (dynamic images)” value (n=2, dynamic PET frames) is on record as “immediate distribution of the radioactive gas in the lungs”.
